Experimental data reported in patent publication US20250296938A1, “Compounds that Interact with the Ras Superfamily for the Treatment of Cancers, Inflammatory Diseases, Rasopathies, and Fibrotic Disease” (SHY Therapeutics, LLC, priority 2018, published 2025).

Columns and labels:
MAPK phosphorylation = experiment: MAPK cell-based phosphorylation assay (ELISA or Western), PANC-1; details: Homo sapiens, 10 μM
Experimental: Cell lines: Tumor-derived pancreatic cancer cell line PANC-1 was purchased from ATCC and were and grown in DMEM-High Glucose supplemented with penicillin (100 U/mL), streptomycin (100 μg/mL), and 10% heat-inactivated FBS at 37° C. in a humidified incubator with 5% CO2.
Method: Cells were plated at 7500 cells/well density in a 96-well plate, allowed 3 hours to adhere to the plate, then starved in DMEM plus 0.5% FBS overnight. The small molecules to be tested were added to the cells in the final concentration of 10 μM in the presence of 0.3% DMSO for 6 hours incubation at 37° C. For IC50 value determination, serial dilutions of compounds were added to cells under the same conditions. Next, cells were stimulated with 1.5 ng/mL EGF for 15 minutes followed by cell fixation with 4% formaldehyde in PBS at room temperature for 20 minutes. Cell-direct ELISA determined phosphorylation level of MAPK.
Cell-direct ELISA: For each well, cells were permeabilized with 0.1% PBS-Triton X-100, quenched with 0.06% H2O2 in 0.1% PBS-Triton X-100, and probed with anti-phospho-MAPK antibodies (R&D Systems) followed by HRP-conjugated secondary antibody (Jackson Immunoresearch, West Grove, PA). Next, a 50 μM solution of the fluorescent substrate AmpliFlu Red (Sigma) was added and incubated at RT for 20 minutes. At the end of the incubation time, phosphorylation level of MAPK was determined by measuring fluorescence at 595 nm using SpectraMax M3 plate reader (Molecular Devices).
Cell lines: Human NSCLC cells NCI-H1975 and NCI-H1299, and tumor-derived pancreatic cancer cell lines Panc-1, MIA-PaCa-2, and BxPC3, were all purchased from American Type Culture Collection and grown in complete RPMI medium (BxPC3, NCI-H1975 and NCI-H1299) or DMEM-High Glucose (Panc1 and MIA-PaCa-2), supplemented with penicillin (100 U/mL), streptomycin (100 μg/mL), and 10% heat-inactivated FBS at 37° C. in a humidified incubator with 5% CO2.
(§1) Method: Cells were plated at 350000 cells/well density in a 12-well plate, allowed 3 hours to adhere to the plate, then starved in the appropriate medium in the presence of 0.5% FBS overnight. The small molecules to be tested were added to the cells in the final concentration of 10 μM in the presence of 0.3% DMSO for 6 hours incubation at 37° C. For IC50 value determination, serial dilutions of compounds were added to cells under the same conditions. Next, cells were stimulated with 1.5 ng/ml EGF for 15 minutes then cells were lysed with lysis buffer containing 1% Triton X-100, EDTA, and Halt™ Protease & Phosphatase Inhibitor Cocktail (Thermo Scientific). Protein concentration was assessed by BCA protein assay (Thermo Scientific). Phosphorylation level of MAPK was determined by western blot.
(§2) Western blot protocol: Equal amounts of protein (15-50 μg) were separated by SDS-PAGE and transferred to nitrocellulose membranes (Invitrogen by Thermo Fisher Scientific). The membrane was stained with Ponceau S Stain (Boston BioProducts) to verify uniform protein loading. Membranes were blocked with 10% milk and phosphorylation levels of MAPK were assessed by incubating overnight at 4° C. with anti-phospho-p44/42 (Thr202/Tyr204) antibody (Cell Signaling) followed by HRP-conjugated secondary antibody (Jackson Immunoresearch, West Grove, PA). Bands were incubated in Amersham ECL Prime Western Blotting Detection Reagent (GE Healthcare) and visualized using the ChemiDoc MP imaging system (Bio-Rad).

AKT phosphorylation = experiment: Western AKT cell-based phosphorylation assay, PANC-1; details: Homo sapiens
Experimental: Human tumor-derived pancreatic cancer cell line Panc-1 was purchased from American Type Culture Collection and grown in complete DMEM-High Glucose supplemented with penicillin (100 U/mL), streptomycin (100 μg/mL), and 10% heat-inactivated FBS at 37° C. in a humidified incubator with 5% CO2.
as §1, with “C.” for “C. For IC50 value determination, serial dilutions of compounds were added to cells under the same conditions.”, “Akt” for “MAPK”
as §2, with “Akt” for “MAPK”, “anti-phospho-Akt (Ser473)” for “anti-phospho-p44/42 (Thr202/Tyr204)”

[1] = 6 hours, EGF stimulation, PANC-1

Row | Compound | inhibition at 10 µM (MAPK phosphorylation; [1]) [%] | inhibition at 10 µM (AKT phosphorylation; [1]) [%] | inhibition at 10 µM (MAPK phosphorylation; PANC-1 (Table 4C)) [%] | inhibition at 10 µM (AKT phosphorylation; PANC-1 (Table 4C)) [%]
1 | CCN(CC)C(=O)c1nc(-c2nccn2C)nc(O)c1O [drawing 463] | 0 | 0 | – | –
2 | Oc1nc(-c2nccn2Cc2ccccn2)nc2c(-c3ccccn3)csc12 [drawing 392] | 51 to 75 | 0 | – | –
3 | COC1CCC(Nc2nc(-c3nccn3C)nc3sc(-c4cccc5[nH]ncc45)c(C)c23)C1 (stereo not drawn) [drawing 495] | – | – | 76 to 100 | 76 to 100
4 | COCCc1ccc(Oc2nc(-c3ccccn3)nc(O)c2OC)cc1 [drawing 450] | 0 | 0 | – | –
5 | COc1c(O)nc(-c2ccccn2)nc1Oc1ccc(C(=O)N(C)C)cc1 [drawing 479] | – | – | 0 | 0
6 | CO[C@H]1C[C@@H](Nc2nc(-c3nccn3C)nc3sc(C(=O)N4CCOCC4)c(-c4ccccc4)c23)C1 [drawing 522] | – | – | 0 | 0
7 | COCC1CN(c2nc(-c3nccn3C)nc3sc(-c4cccc(OC)c4F)c(-c4ccc(OC)cc4)c23)C1 [drawing 443] | 76 to 100 | 0 | – | –
8 | Oc1nc(-c2cn3ccccc3n2)nc2c(-c3ccccn3)csc12 [drawing 389] | 26 to 50 | 0 | – | –
9 | COCCn1ccnc1-c1nc(O)c2scc(-c3ccc(OCC(C)C)nc3)c2n1 [drawing 498] | – | – | 76 to 100 | 0
10 | Cc1cn(C)c(-c2nc(O)c3scc(-c4ccccn4)c3n2)n1 [drawing 395] | 0 | 0 | – | –
11 | CO[C@H]1CC[C@@H](Nc2nc(-c3nccn3C)nc3sc(C(=O)NC(C)C)c(-c4ccccc4)c23)C1 [drawing 524] | – | – | 0 | 0
12 | COC1CCN(c2nc(-c3nccn3C)nc3sc(-c4cnn(C)c4)c(-c4ccccc4)c23)C1 (stereo not drawn) [drawing 435] | 1 to 25 | 0 | – | –
13 | COc1c(O)nc(-c2ccccn2)nc1Oc1cnn(C)c1 [drawing 445] | 1 to 25 | 0 | – | –
14 | COC1CCN(c2nc(-c3nccn3C)nc3sc(Br)c(-c4ccccc4)c23)C1 (stereo not drawn) [drawing 441] | 26 to 50 | 0 | – | –
15 | COc1c(F)cccc1-c1sc2nc(-c3nccn3C)nc(NC3CCC(OC)C3)c2c1-c1ccccc1 (stereo not drawn) [drawing 486] | – | – | 76 to 100 | 76 to 100
16 | COC1CCN(c2nc(-c3nccn3C)nc3sc(-c4cnc(C5CC5)o4)c(-c4ccccc4)c23)C1 (stereo not drawn) [drawing 432] | 51 to 75 | 0 | – | –
17 | Oc1nc(-c2ncc3n2CCCC3)nc2c(-c3ccccn3)csc12 [drawing 388] | 0 | 0 | – | –
18 | O=C(c1nc(-c2ccccn2)nc(O)c1O)N1CCCC1 [drawing 456] | 0 | 0 | – | –
19 | CO[C@H]1C[C@@H](Nc2nc(-c3ccccn3)nc3sccc23)C1 [drawing 502] | – | – | 1 to 25 | 0
20 | COCC(C)Nc1nc(-c2nccn2C)nc2sc(-c3ccn(C)n3)c(-c3ccccc3)c12 (stereo not drawn) [drawing 402] | 51 to 75 | 0 | – | –
21 | COc1cccc(-c2sc3nc(-c4nccn4C)nc(N4CCC(OC)C4)c3c2-c2cscn2)c1 (stereo not drawn) [drawing 417] | 0 | 0 | – | –
